# System: IL-1α
# Assay: Serum cytokine analysis, multiplex ELISA
# Assay type: in vivo, mouse
# Details: serum collected weekly; compared to Injury and mGRPs groups
# Method: Samples were collected every week, starting from day of graft transplantation (day 0), 100 μl of blood from mouse tail. Blood was stored 1 h in room temperature, and overnight in +4° C. Serum was gently aspirated, and centrifuged 10 min with 2000 RPM to separate blood morphotic bodies. Purified serum was stored in −80° C. until further analysis. Multiplex ELISA 23-cytokine kit (M60009RDPD) was obtained from Bio-Rad (Bio-Plex Pro Mouse Cytokine 23-plex Assay #M60009RDPD, Hercules, Bio-Rad, CA, USA, RRID: AB_2857368) and performed according to instructions. 50 μl of diluted in sample diluent, 1:4 serum samples and diluted at range 1:10-1:20. Measurement standards were used, diluted 9 times according to the protocol and added at template plate. Vortexed beads were added to the assay 96-well plate. Plate was again washed 3 times with wash buffer, then from template plate, 50 μl of samples, standards and blank were transferred to measurement plate with multichannel pipette. Plate was sealed with tape and incubated 30 min. After this time, plate was washed 3 times. 25 μl of detection antibody was added to the wells with multichannel pipette. Plate was sealed and incubated for 30 min. and next washed 3 times using wash buffer. […] Beads were resuspended with 125 μl of assay buffer and analysis was performed with Bio Plex 200 reader.
# All quantifications were performed including the manual cell counts in a blinded manner. The NeuN and Ibal were counted as positive cells in the ROI (see above) as previously reported. The number of cells was determined by unbiased counting of positive cells. […] Differences between groups were analyzed using a repeated measure ANOVA model with a fixed effect for the group, of the time and a random intercept for the mouse. In a second, more explorative, approach for each group the time when the physical activity was first measured below a certain threshold was determined. […] The clinically relevant threshold was determined according to previous observations and defined as value 0.9 for the Wire Test. […] The statistical significance at p<0.05 was then determined.
smiles,measurement,value
"C=CC[C@@H]1/C=C(\C)C[C@H](C)C[C@H](OC)[C@H]2O[C@@](O)(C(=O)C(=O)N3CCCC[C@H]3C(=O)O[C@H](/C(C)=C/[C@@H]3CC[C@@H](O)[C@H](OC)C3)[C@H](C)[C@@H](O)CC1=O)[C@H](C)C[C@@H]2OC [Tac, Tacrolimus, reference compound]",peripheral IL-1α cytokine peak,decreased IL-1α peak significantly

# Reference: patent US20250170212A1, “COMPOSITIONS AND METHODS OF TREATING AMYOTROPHIC LATERAL SCLEROSIS (ALS) AND RELATED DISORDERS” (BIOINCEPT, LLC, priority 2022, published 2025)
